Data as given in patent publication US11040954B1, “CXCR3 receptor agonists” (RECEPTOS LLC, priority 2016, dated 2021).

Target: T1, CXCR3 (Homo sapiens, UniProt P49682)
T1 construct: host or cells: CHO-K1 (cAMP Hunter CHOK1 CXCR3 Gi cell line)
T1 sequence (P49682 1-368): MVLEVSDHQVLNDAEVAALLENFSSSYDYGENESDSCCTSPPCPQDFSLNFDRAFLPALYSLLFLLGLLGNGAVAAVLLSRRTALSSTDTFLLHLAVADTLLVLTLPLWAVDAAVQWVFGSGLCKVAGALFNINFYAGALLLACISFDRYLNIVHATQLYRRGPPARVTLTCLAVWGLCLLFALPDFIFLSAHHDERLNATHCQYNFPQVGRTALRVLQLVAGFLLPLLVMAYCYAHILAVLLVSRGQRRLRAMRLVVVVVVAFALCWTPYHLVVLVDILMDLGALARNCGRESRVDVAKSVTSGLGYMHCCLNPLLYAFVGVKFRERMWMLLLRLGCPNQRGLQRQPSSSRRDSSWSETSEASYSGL
Test: CXCR3 cAMP agonist assay (cAMP Hunter CHOK1 CXCR3 Gi cell line, forskolin-stimulated, HitHunter cAMP detection)
Format: cell-based
Settings: cAMP Hunter CHOK1 CXCR3 Gi cells, 20 μM forskolin, 30 minutes; read-out: Activity (CXCR3 cAMP agonist assay compound EC50)
Summary of the method: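 CHOK1 cells expressing human CXCR3 with Gi coupling, 50,000/well in suspension in HBSS/10 mM HEPES/0.1% BSA pH 7.4, were co-treated with 20 μM forskolin and compound (12-point, 0-10 μM, 1% DMSO) for 30 min. cAMP was read by enzyme-complementation luminescence; CXCL11 dose response set maximum efficacy.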

Row | Compound | EC50 [nM]
1 | Cc1cc(NC(=O)[C@H](Cc2ccnc(N)c2)NC(=O)[C@@H]2Cc3ccccc3CN2C(=O)CCC(=O)c2ccccc2)ccc1Cl [Compound 3-10] | 50 to 250
2 | COc1nccc(C[C@H](NC(=O)[C@@H]2Cc3ccccc3CN2C(=O)CCC(=O)c2ccccc2)C(=O)Nc2ccc(Cl)c(C)c2)n1 [Compound 3-11] | 250 to 500
3 | Cc1cc(NC(=O)[C@H](CC(N)=O)NC(=O)[C@@H]2Cc3ccccc3CN2C(=O)CCC(=O)c2ccccc2)ccc1Cl [Compound 3-12] | 50 to 250
4 | Cc1cc(NC(=O)[C@H](CCC(N)=O)NC(=O)[C@@H]2Cc3ccccc3CN2C(=O)CCC(=O)c2ccccc2)ccc1Cl [Compound 3-13] | 50 to 250
5 | Cc1cc(NC(=O)[C@H](Cc2cnc(N)nc2)NC(=O)[C@@H]2Cc3ccccc3CN2C(=O)CCC(=O)c2ccccc2)ccc1Cl [Compound 3-14] | 250 to 500
6 | Cc1cc(NC(=O)[C@@H](Cc2cc3ccccc3[nH]2)NC(=O)[C@@H]2Cc3ccccc3CN2C(=O)CCC(=O)c2ccccc2)ccc1Cl [Compound 4-5] | > 500
7 | Cc1cc(NC(=O)[C@H](Cc2c[nH]cn2)NC(=O)[C@@H]2Cc3ccccc3CN2C(=O)CCC(=O)c2ccccc2)ccc1Cl [Compound 4-8] | < 50
8 | Cc1cc(NC(=O)[C@@](C)(CCCCN)NC(=O)[C@@H]2Cc3ccccc3CN2C(=O)CCC(=O)c2ccccc2)ccc1Cl [Compound 4-9] | 50 to 250
9 | Cc1cc(NC(=O)[C@](C)(CCCCN)NC(=O)[C@@H]2Cc3ccccc3CN2C(=O)CCC(=O)c2ccccc2)ccc1Cl [Compound 4-10] | 50 to 250
10 | NCC[C@H](NC(=O)[C@@H]1Cc2ccccc2CN1C(=O)CCC(=O)c1ccccc1)C(=O)Nc1cc(Cl)c(Cl)cn1 [Compound 4-15] | 250 to 500
11 | Cc1cc(NC(=O)[C@H](CCN)NC(=O)[C@@H]2Cc3ccccc3CN2C(=O)CCC(=O)c2ccccc2)ncc1Cl [Compound 4-16] | < 50
12 | Cc1cc(NC(=O)[C@H](CCN)NC(=O)[C@H]2Cc3ccccc3CN2C(=O)CCC(=O)c2ccccc2)ncc1Cl [Compound 4-17] | > 500
13 | Cc1cc(NC(=O)[C@H](CCN)NC(=O)[C@@H]2Cc3ccccc3CN2C(=O)CCC(=O)c2ccccc2)cc(Cl)c1Cl [Compound 4-18] | 50 to 250
14 | Cc1c(F)cc(NC(=O)[C@H](CCN)NC(=O)[C@@H]2Cc3ccccc3CN2C(=O)CCC(=O)c2ccccc2)cc1Cl [Compound 4-19] | < 50
15 | NCC[C@H](NC(=O)[C@@H]1Cc2ccc(O)cc2CN1C(=O)CCC(=O)c1ccccc1)C(=O)Nc1ccc(Cl)c(Cl)c1F [Compound 4-20] | < 50
16 | CN(C)C(=N)NCCC[C@H](NC(=O)[C@@H]1Cc2ccccc2CN1C(=O)CCC(=O)c1ccccc1)C(=O)Nc1ccc(Cl)c(Cl)c1 [Compound 5-1, (S)—N—((S)-1-((3,4-dichlorophenyl)amino)-5-(3,3-dimethylguanidino)-1-oxopentan-2-yl)-2-(4-oxo-4-phenylbutanoyl)-1,2,3,4-tetrahydroisoquinoline-3-carboxamide] | < 50
17 | Cc1cc(NC(=O)[C@H](Cc2cncn2C)NC(=O)[C@@H]2Cc3ccccc3CN2C(=O)CCC(=O)c2ccccc2)ccc1Cl [Compound 5-2] | 50 to 250
18 | Cc1cc(NC(=O)[C@H](Cc2cncs2)NC(=O)[C@@H]2Cc3ccccc3CN2C(=O)CCC(=O)c2ccccc2)ccc1Cl [Compound 5-3] | 50 to 250
19 | Cc1cc(NC(=O)[C@H](CCN2CCOCC2)NC(=O)[C@@H]2Cc3ccccc3CN2C(=O)CCC(=O)c2ccccc2)ccc1Cl [Compound 5-4] | 50 to 250
20 | Cc1cc(NC(=O)[C@H](CCCC[N+](C)(C)C)NC(=O)[C@@H]2Cc3ccccc3CN2C(=O)CCC(=O)c2ccccc2)ccc1Cl [Compound 6-3] | 50 to 250
21 | Cc1cc(NC(=O)[C@H](CC[N+](C)(C)C)NC(=O)[C@@H]2Cc3ccccc3CN2C(=O)CCC(=O)c2ccccc2)ccc1Cl [Compound 6-7] | 50 to 250
22 | Cc1cc(NC(=O)[C@H](CCCCN)NC(=O)[C@@H]2Cc3ccccc3CN2C(=O)CCC(=O)c2cccc(Cl)c2)ccc1Cl [Compound 7-2] | 50 to 250
23 | Cc1cc(C(=O)CCC(=O)N2Cc3ccccc3C[C@H]2C(=O)N[C@@H](CCCCN)C(=O)Nc2ccc(Cl)c(C)c2)ccc1F [Compound 7-3] | 50 to 250
24 | Cc1cc(NC(=O)[C@H](CCCCN)NC(=O)[C@@H]2Cc3ccccc3CN2C(=O)CCC(=O)c2ccc(F)c(F)c2)ccc1Cl [Compound 7-4] | 250 to 500

Row | Compound | EC50 [nM]
25 | Cc1ccc(C(=O)CCC(=O)N2Cc3ccccc3C[C@H]2C(=O)N[C@@H](CCCCN)C(=O)Nc2ccc(Cl)c(C)c2)cc1F [Compound 7-5] | > 500
26 | Cc1cc(NC(=O)[C@H](CCCCN)NC(=O)[C@@H]2Cc3ccccc3CN2C(=O)CCC(=O)c2cccc(N(C)C)c2)ccc1Cl [Compound 7-6] | 50 to 250
27 | CCOc1cccc(C(=O)CCC(=O)N2Cc3ccccc3C[C@H]2C(=O)N[C@@H](CCCCN)C(=O)Nc2ccc(Cl)c(C)c2)c1 [Compound 7-7] | 50 to 250
28 | Cc1cc(NC(=O)[C@H](CCCCN)NC(=O)[C@@H]2Cc3ccccc3CN2C(=O)CCC(=O)c2cccc(C(F)(F)F)c2)ccc1Cl [Compound 7-8] | < 50
29 | COc1ccc(C(=O)CCC(=O)N2Cc3ccccc3C[C@H]2C(=O)N[C@@H](CCCCN)C(=O)Nc2ccc(Cl)c(C)c2)cc1F [Compound 7-9] | > 500
30 | Cc1cc(NC(=O)[C@H](CCNCC(C)C)NC(=O)[C@@H]2Cc3ccccc3CN2C(=O)CCC(=O)c2ccccc2)ccc1Cl [Compound 8-1, (S)—N—((S)-1-((4-chloro-3-methylphenyl)amino)-4-(isobutylamino)-1-oxobutan-2-yl)-2-(4-oxo-4-phenylbutanoyl)-1,2,3,4-tetrahydroisoquinoline-3-carboxamide] | < 50
31 | CCNCC[C@H](NC(=O)[C@@H]1Cc2ccccc2CN1C(=O)CCC(=O)c1ccccc1)C(=O)Nc1ccc(Cl)c(C)c1 [Compound 8-4] | < 50
32 | Cc1cc(NC(=O)[C@H](CCCNC(C)C)NC(=O)[C@@H]2Cc3ccccc3CN2C(=O)CCC(=O)c2ccccc2)ccc1Cl [Compound 8-5] | < 50
33 | Cc1cc(NC(=O)[C@H](CCNCC(F)(F)F)NC(=O)[C@@H]2Cc3ccccc3CN2C(=O)CCC(=O)c2ccccc2)ccc1Cl [Compound 8-6] | 50 to 250
34 | CC(C)NCC[C@H](NC(=O)[C@@H]1Cc2ccccc2CN1C(=O)CCC(=O)c1ccccc1)C(=O)Nc1ccc(Cl)c(Cl)c1F [Compound 8-7] | < 50
35 | Cc1cc(NC(=O)[C@H](CNC(=N)N)NC(=O)[C@@H]2Cc3ccccc3CN2C(=O)CCC(=O)c2ccccc2)ccc1Cl [Compound 9-1, (S)—N—((S)-1-((4-chloro-3-methylphenyl)amino)-3-guanidino-1-oxopropan-2-yl)-2-(4-oxo-4-phenylbutanoyl)-1,2,3,4-tetrahydroisoquinoline-3-carboxamide] | < 50
36 | Cc1cc(NC(=O)[C@H](CCN)NC(=O)[C@@H]2Cc3ccccc3CN2C(=O)CCC(=O)N2CCCCC2)ccc1Cl [Compound 10-1, (S)—N—((S)-4-amino-1-((4-chloro-3-methylphenyl)amino)-1-oxobutan-2-yl)-2-(4-oxo-4-(piperidin-1-yl)butanoyl)-1,2,3,4-tetrahydroisoquinoline-3-carboxamide] | < 50
37 | Cc1cc(NC(=O)[C@H](CCN)NC(=O)[C@@H]2Cc3ccccc3CN2C(=O)CCC(=O)N2CCOCC2)ccc1Cl [Compound 10-2] | 50 to 250
38 | Cc1cc(NC(=O)[C@H](CCN)NC(=O)[C@@H]2Cc3ccccc3CN2C(=O)CCC(=O)N2CCN(C)CC2)ccc1Cl [Compound 10-3] | < 50
39 | CN1CCN(C(=O)CCC(=O)N2Cc3ccccc3C[C@H]2C(=O)N[C@@H](CCN)C(=O)Nc2ccc(Cl)c(Cl)c2F)CC1 [Compound 10-4] | < 50
40 | NCC[C@H](NC(=O)[C@@H]1Cc2ccccc2CN1C(=O)CCC(=O)N1CCC2CCCCC2C1)C(=O)Nc1ccc2c(c1)CCC2 (stereo partly drawn) [Compound 10-5] | < 50
41 | NCC[C@H](NC(=O)[C@@H]1Cc2ccccc2CN1C(=O)CCC(=O)N1CCCC12CCC2)C(=O)Nc1ccc2c(c1)CCC2 [Compound 10-6] | < 50
42 | CC1(C)CCCN(C(=O)CCC(=O)N2Cc3ccccc3C[C@H]2C(=O)N[C@@H](CCN)C(=O)Nc2ccc3c(c2)CCC3)C1 [Compound 10-7] | < 50
43 | Cc1cc(NC(=O)[C@H](CCN)NC(=O)[C@@H]2Cc3ccccc3CN2C(=O)CCC(=O)N2CCCC23CCC3)cc(C)c1Cl [Compound 10-10] | < 50
44 | Cc1cc(NC(=O)[C@H](CCN)NC(=O)[C@@H]2Cc3ccccc3CN2C(=O)CCC(=O)N2CCCC3(CCC3)C2)cc(C)c1Cl [Compound 10-11] | < 50
45 | Cc1cc(NC(=O)[C@H](CCN)NC(=O)[C@@H]2Cc3ccccc3CN2C(=O)CCC(=O)N2CCC(C)(C)CC2)cc(C)c1Cl [Compound 10-12] | < 50
46 | Cc1cccc(NC(=O)C2(NC(=O)[C@@H]3Cc4ccccc4CN3C(=O)CCC(=O)c3ccccc3)CCNCC2)c1Cl [Compound 11-1, (S)—N-(4-((2-chloro-3-methylphenyl)carbamoyl)piperidin-4-yl)-2-(4-oxo-4-phenylbutanoyl)-1,2,3,4-tetrahydroisoquinoline-3-carboxamide] | > 500
47 | Cc1c(NC(=O)C2(NC(=O)[C@@H]3Cc4ccccc4CN3C(=O)CCC(=O)c3ccccc3)CCNCC2)ccc(Cl)c1Cl [Compound 11-2] | 250 to 500
48 | Cc1cc(NC(=O)C2(NC(=O)[C@@H]3Cc4ccccc4CN3C(=O)CCC(=O)c3ccccc3)CCNCC2)c(F)cc1Cl [Compound 11-3] | < 50
